Test results: patent US10039759B2, “Quinolines as FGFR kinase modulators” (priority 2011, dated 2018)
Read-outs that look alike come from different tables or passages of the source.

Legend:
KDR (h) = KDR (h) (Homo sapiens, UniProt P35968); assay: KDR (VEGFR2) (enzymatic assay), TR-FRET; type: biochemical; conditions: 120 min, pIC50 = -log IC50 (M), average if tested multiple times
Outline: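 Recombinant human KDR (150 ng/ml) phosphorylated 500 nM Btn-Flt3 with 3 μM ATP in HEPES pH 7.5/MnCl2 buffer, 1% DMSO, 120 min at room temperature; EDTA stop with Eu-anti-P-Tyr/SA-XL665 detection, TR-FRET read. IC50 and pIC50 derived from compound concentrations spanning 10 μM to 0.1 nM.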

[1] = molecular target: T1, Ba/F3-Flt3-transfected cells (Homo sapiens, UniProt P36888, cells depend on it, form not given); assay: Ba/F3-Flt3 (minus IL3 or plus IL3) cellular proliferation assay, Alamar Blue; type: cell-based; conditions: minus IL3, 24 hours
T1 construct: BAF3-FLT3 (MIN IL3 Alamar Blue pIC50); other: minus IL3; 24 hours, Alamar Blue
T1 sequence (P36888 1-993): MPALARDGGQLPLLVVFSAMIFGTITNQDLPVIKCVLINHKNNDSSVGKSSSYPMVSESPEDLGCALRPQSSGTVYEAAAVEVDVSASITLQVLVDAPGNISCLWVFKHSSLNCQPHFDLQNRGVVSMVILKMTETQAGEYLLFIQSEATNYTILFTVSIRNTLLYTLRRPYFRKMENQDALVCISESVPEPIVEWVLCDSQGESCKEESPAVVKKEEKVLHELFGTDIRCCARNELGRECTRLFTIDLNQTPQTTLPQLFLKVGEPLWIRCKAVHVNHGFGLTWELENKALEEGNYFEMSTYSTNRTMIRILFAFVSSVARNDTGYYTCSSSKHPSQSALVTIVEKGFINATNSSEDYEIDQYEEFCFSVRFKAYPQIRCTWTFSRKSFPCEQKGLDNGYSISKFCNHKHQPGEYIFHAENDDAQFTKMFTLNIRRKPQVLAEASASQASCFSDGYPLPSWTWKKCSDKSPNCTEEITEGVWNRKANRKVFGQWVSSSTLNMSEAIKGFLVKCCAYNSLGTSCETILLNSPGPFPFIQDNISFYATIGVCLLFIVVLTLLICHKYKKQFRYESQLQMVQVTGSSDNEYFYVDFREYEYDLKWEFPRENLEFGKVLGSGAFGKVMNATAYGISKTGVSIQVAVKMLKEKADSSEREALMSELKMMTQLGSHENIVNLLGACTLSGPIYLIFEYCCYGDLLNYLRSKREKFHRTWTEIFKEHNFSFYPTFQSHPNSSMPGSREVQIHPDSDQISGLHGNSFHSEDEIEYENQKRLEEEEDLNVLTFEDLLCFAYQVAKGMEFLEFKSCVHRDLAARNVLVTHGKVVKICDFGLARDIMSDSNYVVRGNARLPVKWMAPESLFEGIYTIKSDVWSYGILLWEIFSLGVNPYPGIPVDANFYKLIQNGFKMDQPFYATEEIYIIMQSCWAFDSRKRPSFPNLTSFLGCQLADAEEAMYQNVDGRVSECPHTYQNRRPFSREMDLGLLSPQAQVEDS
Procedure: Ba/F3-Flt3 (Minus IL3 or Plus IL3) (Cellular Proliferation Assay)
In a 384 well plate, 100 nl of compound dilution in DMSO was sprayed before adding 50 μl cell culture medium (phenol red free RPMI-1640, 10% FBS, 2 mM L-Glutamine and 50 μg/ml Gentamycin) containing 20000 cells per well of Ba/F3-Flt3-transfected cells. Cells were put in an incubator at 37° C. and 5% CO2. After 24 hours, 10 μl of Alamar Blue solution (0.5 mM K3Fe(CN)6, 0.5 mM K4Fe(CN)6, 0.15 mM Resazurin and 100 mM Phosphate Buffer) was added to the wells, incubated for 4 hours at 37° C. and 5% CO2 before RFU's (Relative Fluorescence Units) (ex. 540 nm., em. 590 nm.) were measured in a fluorescence plate reader.
In this assay, the inhibitory effect of different compound concentrations (range 10 μM to 0.1 nM) was determined and used to calculate an IC50 (M) and pIC50 (−log IC50) value. As a counterscreen the same experiment was performed in the presence of 10 ng/ml murine IL3.

FGFR1 (h) = FGFR1 (h) (Homo sapiens, UniProt P11362); assay: FGFR1 (enzymatic assay), TR-FRET; type: biochemical; conditions: FGFR 1 pIC50, 5 μM ATP, 60 min; pIC50 = -log IC50 (M); average if tested multiple times
FGFR1 (h), sequence (P11362 22-822): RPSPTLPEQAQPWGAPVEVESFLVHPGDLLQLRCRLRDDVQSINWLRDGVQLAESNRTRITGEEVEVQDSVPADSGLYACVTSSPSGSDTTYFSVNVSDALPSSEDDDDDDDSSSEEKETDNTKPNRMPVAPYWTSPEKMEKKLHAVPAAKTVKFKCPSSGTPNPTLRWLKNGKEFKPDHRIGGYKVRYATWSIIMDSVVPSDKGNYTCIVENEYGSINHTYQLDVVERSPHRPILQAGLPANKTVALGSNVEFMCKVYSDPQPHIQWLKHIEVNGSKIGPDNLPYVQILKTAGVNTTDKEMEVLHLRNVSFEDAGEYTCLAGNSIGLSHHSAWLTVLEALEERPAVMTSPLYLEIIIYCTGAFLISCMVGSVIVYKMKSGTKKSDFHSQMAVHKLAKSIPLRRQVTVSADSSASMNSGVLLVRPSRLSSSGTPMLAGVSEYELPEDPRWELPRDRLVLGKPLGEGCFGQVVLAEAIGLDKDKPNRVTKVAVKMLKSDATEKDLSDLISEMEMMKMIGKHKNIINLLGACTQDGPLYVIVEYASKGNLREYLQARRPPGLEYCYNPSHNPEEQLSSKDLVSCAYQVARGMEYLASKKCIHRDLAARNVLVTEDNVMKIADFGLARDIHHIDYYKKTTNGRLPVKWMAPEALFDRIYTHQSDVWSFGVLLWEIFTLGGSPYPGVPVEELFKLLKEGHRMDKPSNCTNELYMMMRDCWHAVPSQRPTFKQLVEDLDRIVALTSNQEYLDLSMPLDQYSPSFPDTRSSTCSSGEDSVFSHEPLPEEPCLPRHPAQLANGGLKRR

[2] = system: Ba/F3-FGFR3-transfected cells; assay: Ba/F3-FGFR3 (minus IL3 or plus IL3) cellular proliferation assay, Alamar Blue; type: cell-based; conditions: plus IL3 (10 ng/ml murine IL3, counterscreen), 24 hours, Alamar Blue; for IC50: read-out: BAF3-FGFR3 (PLUS IL3 Alamar Blue pIC50) (converted)
Outline: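 Ba/F3-FGFR3 cells (20000 per well) in phenol red-free RPMI-1640 with 10% FBS were exposed to compound (10 μM to 0.1 nM) for 24 h at 37° C. Alamar Blue was then added for 4 h and fluorescence read (ex 540, em 590 nm) to give IC50/pIC50; the counterscreen was run with 10 ng/ml murine IL3.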

[3] = 3 μM ATP, read-out: VEGFR KDR pIC50 (converted)

KDR (h), sequence (P35968 20-1356): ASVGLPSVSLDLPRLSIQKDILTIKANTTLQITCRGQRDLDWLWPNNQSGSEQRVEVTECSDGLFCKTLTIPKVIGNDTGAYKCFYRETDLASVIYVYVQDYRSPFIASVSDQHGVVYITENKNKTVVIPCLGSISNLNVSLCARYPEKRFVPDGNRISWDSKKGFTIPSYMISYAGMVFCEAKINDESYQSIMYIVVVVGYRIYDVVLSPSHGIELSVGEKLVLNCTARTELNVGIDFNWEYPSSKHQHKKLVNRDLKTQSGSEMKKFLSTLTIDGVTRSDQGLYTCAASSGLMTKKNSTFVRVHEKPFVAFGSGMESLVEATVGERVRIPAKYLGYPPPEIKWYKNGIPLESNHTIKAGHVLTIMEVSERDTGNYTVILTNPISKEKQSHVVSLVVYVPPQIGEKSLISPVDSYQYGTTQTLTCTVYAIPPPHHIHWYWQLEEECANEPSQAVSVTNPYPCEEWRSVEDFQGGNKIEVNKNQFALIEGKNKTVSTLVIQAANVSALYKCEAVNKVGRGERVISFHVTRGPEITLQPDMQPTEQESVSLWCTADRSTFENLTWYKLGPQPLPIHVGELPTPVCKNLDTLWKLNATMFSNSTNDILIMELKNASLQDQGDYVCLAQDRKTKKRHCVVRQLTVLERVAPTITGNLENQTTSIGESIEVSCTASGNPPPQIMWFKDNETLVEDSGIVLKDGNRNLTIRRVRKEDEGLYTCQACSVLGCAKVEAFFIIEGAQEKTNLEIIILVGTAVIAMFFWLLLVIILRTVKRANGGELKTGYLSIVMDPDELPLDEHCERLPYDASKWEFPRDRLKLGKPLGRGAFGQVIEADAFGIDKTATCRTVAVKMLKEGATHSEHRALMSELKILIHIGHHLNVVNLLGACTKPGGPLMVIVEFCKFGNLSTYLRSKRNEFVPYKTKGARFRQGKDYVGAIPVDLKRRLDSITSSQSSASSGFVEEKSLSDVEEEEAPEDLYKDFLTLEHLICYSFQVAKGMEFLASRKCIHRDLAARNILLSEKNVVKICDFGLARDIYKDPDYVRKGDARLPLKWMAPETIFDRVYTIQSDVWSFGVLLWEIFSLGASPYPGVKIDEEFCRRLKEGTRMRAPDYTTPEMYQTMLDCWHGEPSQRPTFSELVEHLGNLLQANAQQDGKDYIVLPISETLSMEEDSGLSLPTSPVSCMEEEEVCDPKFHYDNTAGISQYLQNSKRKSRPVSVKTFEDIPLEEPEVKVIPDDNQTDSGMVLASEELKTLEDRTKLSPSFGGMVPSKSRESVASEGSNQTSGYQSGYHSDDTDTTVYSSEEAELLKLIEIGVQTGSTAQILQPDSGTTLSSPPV

SMILES | IC50 (KDR (h); [3]) [M] | BAF3-FLT3 (MIN IL3 Alamar Blue pIC50) [1] | IC50 (FGFR1 (h)) [M] | IC50 [2] [nM] | BAF3-FGFR3 (PLUS IL3 Alamar Blue pIC50) [2] | IC50 (KDR (h); VEGFR KDR pIC50, 3 μM ATP) [M]
COc1cc(OC)c(F)c(N(CC#Cc2ncccc2OC)c2ccc3ncc(-c4cnn(C)c4)cc3c2)c1 [Compound 26] | 4.27e-07 | 5.16 | 4.79e-09 |  |  | 
COc1cc(OC)cc(N(CC#Cc2ncccc2OC)c2ccc3ncc(-c4cnn(C)c4)cc3c2)c1 [Compound 17] | > 1e-06 | <5 | 8.32e-08 | > 10000 |  | 
COc1cc(OC)cc(N(CCCO)c2ccc3ncc(-c4cnn(C)c4)cc3c2)c1 [Compound 4] | 1.38e-07 | 5.35 | 1.91e-08 | > 10000 |  | 
COc1cc(OC)c(F)c(N(CCNC(C)C)c2ccc3ncc(-c4cnn(C)c4)cc3c2)c1 [Compound 2] | 2.57e-08 | 5.34 | 1.32e-09 |  |  | 
COc1cc(Nc2ccc3ncc(-c4cnn(C5CCCCO5)c4)cc3c2)cc(OC)c1 (centres unmarked) [Int. 8] | 3.16e-07 | <5 | 9.55e-08 | > 10000 |  | 
COc1cc(OC)cc(N(CCO)c2ccc3ncc(-c4cnn(C)c4)cc3c2)c1 [Compound 3] | 9.12e-08 | 5.52 | 1.38e-08 | > 10000 |  | 
COc1cc(OC)cc(N(CCNC(C)C)c2ccc3ncc(-c4cn[nH]c4)cc3c2)c1 [Compound 21] | 1.02e-07 | 5.09 |  | > 10000 |  | 
COc1cc(OC)cc(N(Cc2nccn2S(=O)(=O)N(C)C)c2ccc3ncc(-c4cccnc4)cc3c2)c1 [Compound 60] | > 1e-06 | <5 |  |  |  | 
COc1cc(OC)cc(N(CC2CCN(c3nccc(OC)n3)C2)c2ccc3ncc(-c4cnn(C)c4)cc3c2)c1 (centres unmarked) [Compound 7] | > 1e-06 | <5 |  | > 10000 |  | 
COc1cc(OC)cc(N(CC(O)C(F)(F)F)c2ccc3ncc(-c4cnn(C)c4)cc3c2)c1 (single isomer, unassigned) [Compound 24] | 2.88e-07 | <5 |  | > 10000 |  | 
COc1cc(OC)cc(N(CCCN2CCCC2CNS(=O)(=O)C(F)(F)F)c2ccc3ncc(-c4cnn(C)c4)cc3c2)c1 (centres unmarked) [Compound 47] | 1.17e-08 | 5.14 | 1.17e-09 | > 10000 |  | 
COc1cc(OC)cc(N(CC#Cc2nccc(OC)n2)c2ccc3ncc(-c4cnn(C)c4)cc3c2)c1 [Compound 16] | 8.91e-07 | 5.19 | 9.33e-09 |  |  | 
C#CCN(c1cc(OC)cc(OC)c1)c1ccc2ncc(-c3cnn(C)c3)cc2c1 [Compound 6] | 4.27e-07 | 5.2 | 1.51e-08 | > 10000 |  | 
COc1cc(OC)cc(N(Cc2nccn2S(=O)(=O)N(C)C)c2ccc3ncc(-c4cnn(C)c4)cc3c2)c1 [Compound 9] | 1.66e-07 | <5 | 5.62e-09 | > 10000 |  | 
COc1cccnc1C#CCN(c1ccc2ncc(-c3cnn(C)c3)cc2c1)c1c(F)c(OC)cc(OC)c1F [Compound 27] | 3.76e-08 | <5 | 1.64e-09 |  |  | 
COc1cc(OC)cc(N(CC#Cc2nccn2C)c2ccc3ncc(-c4cnn(C)c4)cc3c2)c1 [Compound 48] | 2.88e-07 | 5.23 |  | > 10000 |  | 
COc1cc(OC)cc(N(CCNC(C)C)c2ccc3ncc(-c4cnn(C)c4)cc3c2)c1 [Compound 1] | 7.41e-08 | ~5 |  |  |  | 
COc1cc(OC)cc(N(Cc2nccn2S(=O)(=O)N(C)C)c2ccc3ncc(-c4ccncc4)cc3c2)c1 [Compound 58] | 7.24e-07 | <5 |  | > 10000 |  | 
COc1cc(OC)cc(N(CC(O)C(F)(F)F)c2ccc3ncc(-c4cnn(C)c4)cc3c2)c1 (single isomer, unassigned) [Compound 25] | 5.89e-07 | <5 |  |  | <5 | 
COc1cc(OC)cc(N(CCCN2CCCO2)c2ccc3ncc(-c4cnn(C)c4)cc3c2)c1 [Compound 19] |  | 6.03 |  |  |  | 1e-07
COc1cc(OC)cc(N(CCCN2CCCC2=O)c2ccc3ncc(-c4cnn(C)c4)cc3c2)c1 [Compound 10] |  | <5 |  |  |  | 8.13e-08
COc1cc(OC)cc(N(Cc2ncc[nH]2)c2ccc3ncc(-c4ccncc4)cc3c2)c1 [Compound 57] | 4.57e-07 | <5 | 2.82e-09 |  |  | 
COc1cc(OC)cc(N(Cc2ncccn2)c2ccc3ncc(-c4cnn(C)c4)cc3c2)c1 [Compound 8] | 8.13e-07 | <5.47 |  | > 10000 |  | 
CNCCN(c1ccc2ncc(-c3cnn(C)c3)cc2c1)c1c(F)c(OC)cc(OC)c1F [Compound 43] | 1.48e-08 | 5.24 | 1.07e-09 |  |  | 
COc1cc(OC)cc(N(CCCNCC(F)(F)F)c2ccc3ncc(-c4cnn(C)c4)cc3c2)c1 [Compound 5] | 2.45e-07 | 5.06 |  |  |  | 
COc1cc(OC)cc(N(CCNC(C)C)c2ccc3ncc(-c4cnn(CCS(C)(=O)=O)c4)cc3c2)c1 [Compound 14] | 9.55e-08 | <5 |  | > 10000 |  | 
